Experimental data taken from article PMC9078525, “Inhibitory effects of garcinone E on fatty acid synthase” (RSC Advances, 2018).
Read-outs that look alike come from different tables or passages of the source.

Key:
[1] = biological target: T1, chicken FAS (overall reaction) (Gallus gallus, UniProt P12276); assay: Time-dependent (slow-binding irreversible) inactivation of FAS overall reaction; type: biochemical
T1 construct: tissue Huadu Broiler Corporation, Beijing; host or cells: chicken liver
T1 sequence (P12276 whole entry): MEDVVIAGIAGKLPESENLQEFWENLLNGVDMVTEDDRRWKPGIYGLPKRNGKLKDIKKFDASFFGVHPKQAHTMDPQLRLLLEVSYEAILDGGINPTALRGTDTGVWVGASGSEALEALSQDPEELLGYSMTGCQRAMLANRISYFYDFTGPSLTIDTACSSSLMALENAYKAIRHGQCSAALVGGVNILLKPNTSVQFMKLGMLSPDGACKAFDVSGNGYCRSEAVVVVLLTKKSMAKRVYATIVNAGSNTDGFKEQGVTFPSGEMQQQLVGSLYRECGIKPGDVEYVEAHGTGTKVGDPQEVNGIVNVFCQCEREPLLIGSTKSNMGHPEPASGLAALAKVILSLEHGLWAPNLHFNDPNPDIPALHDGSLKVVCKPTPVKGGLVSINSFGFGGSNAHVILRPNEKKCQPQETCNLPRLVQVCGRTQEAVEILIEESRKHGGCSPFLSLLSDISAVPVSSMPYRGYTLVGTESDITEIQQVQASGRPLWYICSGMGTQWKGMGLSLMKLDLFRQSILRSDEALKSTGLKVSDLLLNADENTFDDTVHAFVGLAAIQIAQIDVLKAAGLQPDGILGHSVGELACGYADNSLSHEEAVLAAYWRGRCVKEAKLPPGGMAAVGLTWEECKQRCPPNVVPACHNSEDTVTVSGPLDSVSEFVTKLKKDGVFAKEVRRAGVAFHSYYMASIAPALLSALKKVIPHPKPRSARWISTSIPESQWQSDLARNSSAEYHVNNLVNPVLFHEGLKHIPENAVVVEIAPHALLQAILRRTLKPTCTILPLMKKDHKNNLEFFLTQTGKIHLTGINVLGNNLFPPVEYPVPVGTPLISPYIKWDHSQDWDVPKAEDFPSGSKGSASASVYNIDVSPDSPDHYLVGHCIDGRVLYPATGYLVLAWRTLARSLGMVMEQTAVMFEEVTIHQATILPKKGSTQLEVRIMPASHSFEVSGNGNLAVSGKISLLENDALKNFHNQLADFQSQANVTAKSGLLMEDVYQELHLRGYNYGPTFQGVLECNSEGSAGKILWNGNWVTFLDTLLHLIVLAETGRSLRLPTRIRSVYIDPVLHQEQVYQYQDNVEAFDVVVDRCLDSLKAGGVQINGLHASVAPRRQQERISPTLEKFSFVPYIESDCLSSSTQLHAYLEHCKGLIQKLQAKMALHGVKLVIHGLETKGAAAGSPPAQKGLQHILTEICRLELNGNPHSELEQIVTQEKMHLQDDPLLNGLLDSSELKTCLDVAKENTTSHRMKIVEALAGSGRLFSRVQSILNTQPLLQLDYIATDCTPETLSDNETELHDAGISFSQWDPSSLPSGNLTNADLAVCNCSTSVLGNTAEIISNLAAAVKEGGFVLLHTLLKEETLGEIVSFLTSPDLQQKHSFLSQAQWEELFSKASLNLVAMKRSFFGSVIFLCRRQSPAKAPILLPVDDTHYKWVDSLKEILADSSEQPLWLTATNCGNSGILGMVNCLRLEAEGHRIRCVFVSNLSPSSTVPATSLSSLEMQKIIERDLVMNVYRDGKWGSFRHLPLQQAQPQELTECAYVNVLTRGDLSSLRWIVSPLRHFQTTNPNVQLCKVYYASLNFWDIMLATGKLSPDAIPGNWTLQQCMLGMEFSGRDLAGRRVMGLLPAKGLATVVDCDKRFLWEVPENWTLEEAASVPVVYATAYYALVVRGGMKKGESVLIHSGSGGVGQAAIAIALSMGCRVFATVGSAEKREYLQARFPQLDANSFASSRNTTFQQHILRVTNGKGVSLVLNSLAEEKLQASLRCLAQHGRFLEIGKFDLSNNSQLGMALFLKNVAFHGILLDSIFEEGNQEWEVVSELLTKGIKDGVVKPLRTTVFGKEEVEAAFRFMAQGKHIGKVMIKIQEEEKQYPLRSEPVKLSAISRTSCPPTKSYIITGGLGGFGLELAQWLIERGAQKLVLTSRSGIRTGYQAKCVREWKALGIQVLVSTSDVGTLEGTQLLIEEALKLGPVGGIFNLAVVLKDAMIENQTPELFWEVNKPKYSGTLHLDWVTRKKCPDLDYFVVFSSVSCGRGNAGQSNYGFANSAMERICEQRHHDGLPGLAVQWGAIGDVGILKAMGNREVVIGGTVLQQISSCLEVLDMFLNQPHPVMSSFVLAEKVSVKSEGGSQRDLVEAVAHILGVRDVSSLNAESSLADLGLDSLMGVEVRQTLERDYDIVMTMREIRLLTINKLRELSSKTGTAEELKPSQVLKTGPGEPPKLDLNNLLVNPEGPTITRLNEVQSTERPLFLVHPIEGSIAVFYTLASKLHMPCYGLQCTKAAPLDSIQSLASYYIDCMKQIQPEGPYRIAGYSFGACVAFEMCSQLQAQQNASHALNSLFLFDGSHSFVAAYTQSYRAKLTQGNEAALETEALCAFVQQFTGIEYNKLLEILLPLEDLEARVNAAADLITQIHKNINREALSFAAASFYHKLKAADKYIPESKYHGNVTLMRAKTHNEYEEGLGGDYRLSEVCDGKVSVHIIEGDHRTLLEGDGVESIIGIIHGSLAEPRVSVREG
Description: (§1) Assay of time-dependent inhibition activity was carried out as previous described.[13] The FAS solution was mixed with garcinone E and incubated at 25 °C, and then aliquots were taken to measure the remaining activity at the indicated time intervals to obtain the time course. […] The rate constant of FAS inactivation can be calculated from a semi-log plot of the time course, which is based upon the formula ln At/A0 = −kobst. The At/A0 expresses the remaining activity at t time, and kobs is the observed rate constant. Based on earlier studies, the inhibition of FAS activity is due to both fast-binding and time-dependent inhibitions, although sometimes the fast-binding reversible inhibition is not potent enough to affect the enzyme.

[2] = biological target: T1, chicken FAS (overall reaction); assay: Fast-binding inhibition of FAS overall reaction (NADPH absorption at 340 nm); type: biochemical; details: fast-binding reversible inhibition, 37 °C; read-out: IC50 (half-inhibitory concentration), overall reaction of FAS
Description: (§2) The preparation of FAS from chicken liver (Huadu Broiler Corporation, Beijing) was performed as described previously.[24] The amino acid sequence of chicken FAS has 63% identity with the sequence of human enzyme.[25] All animal operations followed the Guidelines for the Care and Use of Laboratory Animals established by the National Research Council (US) Institute for Laboratory Animal Research. The purified FAS was homogenized by polyacrylamide gel electrophoresis in the presence and absence of sodium dodecyl sulfate, respectively.
(§3) The FAS activity was measured at 37 °C by spectrophotometer at 340 nm of NADPH absorption. The overall reaction system contained 100 mM KH2PO4–K2HPO4 buffer, 1 mM EDTA, 1 mM dithiothreitol, 3 μM Ac-CoA, 10 μM Mal-CoA, 35 μM NADPH, and 10 μg FAS in a total volume of 2 ml as previously described.[26,27] The assay for β-ketoacyl reduction activity of FAS was catalyzed by KR containing 100 mM KH2PO4–K2HPO4 buffer, 200 mM ethyl acetoacetate, 35 μM NADPH, and 20 μg FAS in a total volume of 2 ml (pH 7.0).
Reversible inhibition was determined by adding the inhibitor to the reaction system before the reaction was initiated. The activities of FAS in the presence and absence of garcinone E (dissolved in DMSO) were designated as Ai and A0 respectively. The value of Ai/A0 × 100% was defined as the relative activity (R.A.) of FAS. […]

[3] = biological target: T2, KR (β-ketoacyl reductase) of chicken FAS (Gallus gallus, UniProt P12276); assay: Fast-binding inhibition of β-ketoacyl reduction (KR) activity of FAS; type: biochemical; details: fast-binding reversible inhibition, 37 °C
T2 construct: tissue Huadu Broiler Corporation, Beijing; host or cells: chicken liver
T2 sequence (P12276 whole entry): as above
Description: as §2, §3
(§4) The activity of KR was determined at 37 °C by measuring the change of absorption at 340 nm. The KR reaction mixture (2 ml) contained 40 mM ethyl acetoacetate, 35 μM NADPH, 1 mM EDTA, 1 mM DTT and 10 μg of FAS in 100 mM phosphate buffer, pH 7.0.[28]

[4] = biological target: T2, KR (β-ketoacyl reductase) of chicken FAS; assay: Time-dependent inactivation of KR reaction of FAS; type: biochemical
Description: as §4, §1

[5] = biological target: T1, chicken FAS (overall reaction); assay: Enzyme inhibition kinetics (double reciprocal plots, variable substrate); type: biochemical; details: for Ki: secondary plot of slopes, read-out: Inhibition constant Kis; for Inhibition constant Kii: secondary plot of intercepts
Excerpt: Possible interference by the inhibitor at each substrate binding site was examined by holding the concentration of the inhibitor at several fixed levels respectively, and increasing one substrate concentration while keeping the concentrations of the other substrates constant. Double reciprocal plots for every concentration of the inhibitor were yielded to estimate the competitive relationship between the variable substrate and inhibitor concentrations. This study is based on fast-binding inhibition.
Inhibition kinetics study was carried out to elucidate the mechanism of the reversible inhibition of FAS by garcinone E. Possible interference by garcinone E at each substrate-binding site was examined by holding the concentration of garcinone E at a constant value, and measuring the effect of increasing one substrate concentration (the concentrations of the other two substrates were fixed) on the initial reaction rate. Double-reciprocal plots of the results (Fig. 3A–C) yielded three families of straight lines, which had different intersections, for three substrates of FAS. […] However, the lines for NADPH (Fig. 3C) intersected on the X axis, from which it was concluded that garcinone E was a typically noncompetitive inhibitor of FAS against NADPH.
Fig. 3 Lineweaver–Burke plots for inhibition of FAS activity by garcinone E. Double reciprocal plots for inhibition of FAS by garcinone E. The activity of the overall reaction of FAS was measured. (A) The concentrations of Mal-CoA and NADPH were fixed at 10 μM and 35 μM, respectively. Ac-CoA was the variable substrate. […] (B) The concentrations of Ac-CoA and NADPH were fixed at 3 μM and 35 μM, respectively. Mal-CoA was the variable substrate. […] (C) The concentrations of Ac-CoA and Mal-CoA were fixed at 3 μM and 10 μM, respectively. NADPH was the variable substrate. […] Each datum was the mean from 2–5 experiments.

chicken FAS = biological target: T3, chicken FAS (Gallus gallus, UniProt P12276); assay: Substrate protection for time-dependent inactivation of FAS; type: biochemical; details: 10.0 μM garcinone E
T3 construct: tissue Huadu Broiler Corporation, Beijing; host or cells: chicken liver
T3 sequence (P12276 whole entry): as above
Description: as §1
Furthermore, substrate protection for time-dependent inhibition was examined in the measurement of FAS inactivation by garcinone E with 10 μM Ac-CoA, 10 μM Mal-CoA, or 10 μM NADPH, respectively. Inactivation in the same condition but without any substrate was the control. […] Therefore, the substrates of Mal-CoA and NADPH had no obvious protection effect. However, the inactivation was slowed by Ac-CoA.

FAS = details: cited from earlier work

SMILES: COc1cc2oc3cc(O)c(OC)c(CC=C(C)C)c3c(=O)c2c(O)c1CC=C(C)C [β-mangostin]
- time-dependent (slow-binding irreversible) inhibition of FAS overall reaction, in words [1]: none of them showed slow-binding inactivation

SMILES: CC(C)=CCc1c(O)cc2oc3c(CC=C(C)C)c(O)c(O)c(CC=C(C)C)c3c(=O)c2c1O [garcinone E, 2,3,6,8-tetrahydroxy-1,4,7-tris(3-methylbut-2-enyl)-9H-xanthen-9-one]
- IC50 [2]: 3.3 µM
- IC50 [3]: 14.6 µM
- time-dependent (slow-binding irreversible) inhibition of FAS overall reaction, in words [1]: slow-binding irreversible inhibition
- fold difference in inactivation rate between overall reaction and KR ([1]; 20.0 μM garcinone E): more than 20 fold
- irreversible inhibition on KR, in words [4]: very weak
- kobs of FAS inactivation, KR ([4]; 20.0 μM garcinone E, incubated at 25 °C): 0.0004 min⁻¹
- Inhibitory manner ([5]; variable substrate Ac-CoA, Mal-CoA 10 μM, NADPH 35 μM): Competitive
- Ki ([5]; variable substrate Ac-CoA): 1.77 µM
- Inhibitory manner ([5]; variable substrate Mal-CoA, Ac-CoA 3 μM, NADPH 35 μM): Mixed competitive and noncompetitive
- Inhibition constant Kii ([5]; variable substrate Mal-CoA, binding with enzyme-substrate complex): 5.99 µM
- Ki ([5]; variable substrate Mal-CoA): 3.89 µM
- Inhibitory manner ([5]; variable substrate NADPH, Ac-CoA 3 μM, Mal-CoA 10 μM): Noncompetitive
- Inhibition constant Kii ([5]; variable substrate NADPH): 2.67 µM
- Ki ([5]; variable substrate NADPH): 1.94 µM
- kobs for inactivation of FAS (chicken FAS; no protection): 17.4 10^−3 min^−1
- reduction of apparent rate constant by pre-incubation with substrate (chicken FAS; pre-incubation with Mal-CoA and NADPH): less than 10%
- kobs for inactivation of FAS (chicken FAS; protection by 10 μM Ac-CoA): 5.3 10^−3 min^−1
- kobs for inactivation of FAS (chicken FAS; protection by 10 μM Mal-CoA): 16.6 10^−3 min^−1
- kobs for inactivation of FAS (chicken FAS; protection by 10 μM NADPH): 15.9 10^−3 min^−1

SMILES: COc1c(O)cc2oc3cc(O)c(CC=C(C)C)c(O)c3c(=O)c2c1CC=C(C)C [α-mangostin]
- time-dependent (slow-binding irreversible) inhibition of FAS overall reaction, in words [1]: none of them showed slow-binding inactivation

SMILES: CC(C)=CCc1c(O)cc2oc3cc(O)c(O)c(CC=C(C)C)c3c(=O)c2c1O [γ-mangostin]
- time-dependent (slow-binding irreversible) inhibition of FAS overall reaction, in words [1]: none of them showed slow-binding inactivation

SMILES: O=C(O[C@@H]1Cc2c(O)cc(O)cc2O[C@@H]1c1cc(O)c(O)c(O)c1)c1cc(O)c(O)c(O)c1 [EGCG, epigallocatechin gallate]
- IC50 (FAS): 52 µM

SMILES: C/C=C/C/C=C/CCC(=O)[C@H]1O[C@H]1C(N)=O [cerulenin]
- IC50 (FAS): 89 µM
